Test results: PMC9538944, “In vitro biotransformation assays using fish liver cells: Comparing rainbow trout and carp hepatocytes” (Frontiers in Toxicology, 2022)
Marks after values point to notes of the source that are not given here.

Key:
common carp hepatocytes = experiment: In vitro hepatocyte clearance assay (substrate depletion), carp; format: in vitro ADME, Cyprinus carpio; settings: 20 °C, 2 µM MXC / 0.5 µM BaP, mean over in vitro runs
Description: Isolation of hepatocytes from liver of rainbow trout was performed by a two-step collagenase perfusion procedure which is well established for rainbow trout ([Nabb et al., 2006]; [Fay et al., 2015]). […] In previous studies with common carp, an in vitro digestion method was used to isolate hepatocytes ([Cowan-Ellsberry et al., 2008]; [Dyer et al., 2008]). Here, we adopted the method of [Segner et al. (1993)] who used a two-step collagenase perfusion of carp liver via the Arteria coeliaca for cell isolation. With the perfusion method, the percentage of pancreatic cells in the final cell suspension is typically <5% ([Vogt and Segner, 1997]). Cryopreservation and thawing procedures applied for hepatocytes of both species were based on the standard protocols for rainbow trout ([Fay et al., 2014a]; [Fay et al., 2014b]). The viability of the cells was determined by means of the trypan blue exclusion assay and counting of stained and non-stained cells in a hemocytometer. The carp and trout primary hepatocyte suspensions used in the present study were aliquots of the in vitro preparations used in a previous study investigating the in vitro metabolite patterns of MXC ([Bischof et al., 2016]). A detailed description of the methods and materials used for the preparation of hepatocyte suspensions including the procedures for cell isolation, cryopreservation, and thawing, as well as cell counting, diluting to the target cell concentration, and heat-inactivating can therefore be taken from [Bischof et al. (2016)] and from the cited publications.
The in vitro hepatocyte clearance experiments were performed in a substrate depletion approach according to the methods previously published by [Fay et al. (2014b)]. These methods are in accordance with the procedures provided in the OECD TG 319A on the performance of in vitro hepatocyte clearance assays. In the present study, several in vitro runs with MXC and BaP using suspensions of either freshly isolated or cryopreserved hepatocytes from common carp and rainbow trout were carried out. For the different in vitro runs non-pooled hepatocytes were used, i.e. hepatocytes from different individual fish. For each run, triplicates of live cells (3 × 1 ml at nominal 2 × 10^6 cells/mL) and heat-inactivated cells as controls were dosed with the test chemical dissolved in acetonitrile (ACN) at the targeted concentration (2 µM for MXC and 0.5 µM for BaP) and incubated for 4 h at 15 °C (trout) or 20 °C (carp). MXC and BaP reactions were run side by side in the same in vitro run using the same hepatocyte suspensions. […]
Measured values of parent chemical concentration were log10-transformed and plotted against time. […]

[1] = set-up: method as in Fay et al., 2014b; settings: ref Fay et al., 2014b; cited from earlier work
[2] = cryopreserved carp hepatocytes, 4 h time point excluded
[3] = freshly isolated carp hepatocytes, 4 h, nominal 2 × 10^6 cells/mL

c1ccc2c(c1)cc1ccc3cccc4ccc2c1c34 [BaP, benzo[a]pyrene]
Mean in vitro intrinsic clearance (CLin vitro, int) (common carp hepatocytes; [2]): 0.287 mL/h/10^6 cells
Mean in vitro intrinsic clearance (CLin vitro, int) (common carp hepatocytes; [3]): 0.198^* mL/h/10^6 cells
log KOW [1]: 5.99

COc1ccc(C(c2ccc(OC)cc2)C(Cl)(Cl)Cl)cc1 [MXC, methoxychlor]
Mean in vitro intrinsic clearance (CLin vitro, int) (common carp hepatocytes; [2]): 0.204 mL/h/10^6 cells
Mean in vitro intrinsic clearance (CLin vitro, int) (common carp hepatocytes; [3]): 0.287^* mL/h/10^6 cells
log KOW [1]: 5.08
